Assay results taken from patent US20050009772A1, “Methods and compositions for the treatment of glaucoma and other retinal diseases” (The Regents of the University of California, priority 2003, published 2005).
“Also recorded” adds a separate entry of the source.

Key:
[1] = tested on: HSP72; assay: Western blot for HSP72 in enriched RGC fraction after systemic administration of GGA (Experiment 1); type: in vivo, rat; conditions: GGA 200 mg/kg daily i.p.
Description: Experiment 1 was performed to evaluate the expression of HSP72 and HSC70 in RGCs after systemic administration of GGA with Western blot analysis and immunohistochemistry. For Western blotting, twelve rats were equally divided into 6 groups. Three groups of animals were given intraperitoneal injections of GGA 200 mg/kg daily and were euthanized after 1-, 3- or 7 days of administration of GGA. Three control groups were intraperitoneally administered 1) saline-vehicle daily for 7 days; 2) GGA with 4 mg/kg of quercetin (Sigma, St. Louis, Mo.) daily for 7 days; and 3) untreated animals. Enriched RGC fraction was harvested from 2 retinas of each group and used for Western blot analysis. The same experiment for isolation of RGCs and Western blotting was repeated with the other 2 retinas-from each group.
A solution of 80 mg/mL GGA was prepared in saline (Balanced salt solution; Alcon Laboratories, Inc., Fort Worth, Tex.) and emulsified for one hour in an ultrasonic generator (Branson Ultrasonic Corp., Danbury, Conn.) immediately before administration. Intraperitoneal injections of GGA were given at a dose of 200 mg/kg. Saline-vehicle was prepared and administered in the same fashion in vehicle-treated control groups.
A previously described method was modified to partially purify RGCs from other retinal cells in rat retinas.38 Briefly, two dissected rat retinas from each subgroup were washed in 2.5 ml of calcium- and magnesium-free phosphate buffered saline (PBS) at pH 7.4, and incubated in 1.25 ml of PBS containing 0.5 mg/ml trypsin and 0.01% deoxyribonuclease for 15 minutes at 37° C. This was followed by washing the retinas twice in 2.5 ml of minimal essential medium (MEM) containing 10% (vol/vol) fetal bovine serum. The retinas were subsequently washed in 2.5 ml of MEM twice and dissociated in 3 ml of MEM. The cell suspension was then mixed with 1.5 ml of 30% metrizamide (ICN Biomedicals, Inc., Aurora, Ohio) in MEM to a final concentration of 10 metrizamide. This mixture was then overlaid with 5% metrizamide in MEM, and the gradient was centrifuged at 4500 rpm (HB-4; Sorvall Instruments, Newtown, Conn.) for 25 minutes at 4° C. The cells in the 5% to 10% interface were collected. and washed in 25 ml of cold MEM. The washed cells were pelleted by centrifugation at 250×g for 10 minutes (Juan 3000C centrifuge, Winchester, Va.). The cells were then resuspended in 400 μl of MEM buffer, and the protein concentration in the cell suspension was measured with a bicinchoninic acid (BCA) protein assay kit (Pierce, Rockford, Ill.).
Western blot analysis was performed according to the procedure described by Towbin et al.39 Aliquots of 20 μg of protein from enriched RGCs were separated on a 12% SDS-polyacrylamide minigel (Bio-Rad, Hercules, Calif.) and transferred to the membrane (Immunobilon-P; Millipore Corporation, Bedford, Mass.). The membrane was blocked by incubation in 0.1% Tween-20 in 100 mM Tris-buffered saline containing 10% nonfat dried milk for 1 hour. The membranes were incubated with mouse monoclonal antibody against HSP72 (1:1000; StressGen Biotechnologies Corp., Victoria, British Columbia, Canada) or with rat monoclonal antibody against HSC70 (1:1000; StressGen) overnight and then biotinylated rabbit anti-mouse secondary antibody (1:500; Amersham Pharmacia Biotech, Inc., Piscataway, N.J.) or biotinylated goat anti-rat secondary antibody (1:500; Amersham Pharmacia) for 1 hour. This was followed by incubation with streptavidin-conjugated horseradish peroxidase (1:2000; Amersham Pharmacia) for 40 minutes. The immunoreactive bands were detected by chemiluminescence with an enhanced chemiluminescence Western blot reagent (Amersham Pharmacia).

[2] = tested on: optic nerve axons; assay: Grading of optic nerve injury in rat glaucoma model (Experiment 2); type: in vivo
Description: GGA was then given twice a week at the same dose until euthanasia. Sustained elevation of intraocular pressure (IOP) was maintained by performing trabecular laser photocoagulation three weeks after the first photocoagulation. […] IOP and body weight were measured once a week. After 5 weeks of IOP elevation, the number of retrogradely labeled RGCs with dextran tetramethylrhodamine (DTMR) was counted (n=53). The grading of optic nerve injury and the counting of cresyl violet-stained cells in the retinal ganglion cell layer (RGCL) was also performed (n=54).
Rats were anesthetized with intramuscular injections of 0.8 ml/kg of the anesthetic cocktail described above. A previously published procedure was modified to produce chronic moderately elevated IOP unilaterally, while the untreated contralateral eye served as the comparative control.40 Animals were injected intracamerally with 10 μl of 35% India ink (Becton Dickinson, Cockeysville, Md.) in 0.01 M PBS after removing a similar volume of aqueous. At the end of the procedure, Tobrex ophthalmic ointment (tobramycin 0.3%; Alcon, Fort Worth, Tex.) was applied topically. Five days after intracameral injection of India ink, a dark band at the limbus was noted due to the aggregation of carbon particles in the trabecular meshwork.38 After anesthesia, approximately 200 laser burns were delivered ab externo to the pigmented trabecular band at laser settings of 200 μm diameter, 200 mW power and 0.2 seconds duration. Three weeks after the first laser treatment, another trabecular laser photocoagulation was performed without further injection of ink.
To examine the effect on RGC axons, optic nerve injury was evaluated with an established method.41 After 5 weeks of IOP elevation, deeply anesthetized animals were perfused with a solution of 4% paraformaldehyde and 1% glutaraldehyde. Optic nerve segments […] behind the globe were dissected, washed, postfixed with 5% glutaraldehyde, dehydrated, and embedded. One μm-thick sections were cut and stained with 1% toluidine blue. Optic nerve cross sections were examined under light microscopy and assessed by three independent masked observers. A graded scale of optic nerve injury ranging from 1 (normal) to 5 (total degeneration) was used. Data obtained from three observers were averaged and presented as mean ±SEM.

[3] = tested on: TUNEL positive cells in the RGCL; assay: TUNEL analysis of RGCL after 1 week of IOP elevation (Experiment 3); type: in vivo, rat
Description: Experiment 3 was performed to investigate the inhibition of apoptosis with GGA administration after 1 week of IOP elevation (n=56).
Rats were anesthetized with intramuscular injections of 0.8 ml/kg of the anesthetic cocktail described above. […] At the end of the procedure, Tobrex ophthalmic ointment (tobramycin 0.3%; Alcon, Fort Worth, Tex.) was applied topically. Five days after intracameral injection of India ink, a dark band at the limbus was noted due to the aggregation of carbon particles in the trabecular meshwork.38 After anesthesia, approximately 200 laser burns were delivered ab externo to the pigmented trabecular band at laser settings of 200 μm diameter, 200 mW power and 0.2 seconds duration. Three weeks after the first laser treatment, another trabecular laser photocoagulation was performed without further injection of ink.
Four-μm thick paraffin embedded sections along the vertical meridian of the optic nerve head were collected and a minimum of 6 retinal sections (8 μm apart) per eyeball was used for counting the number of TUNEL positive cells in the RGCL. Only full length and undamaged retinal sections without oblique orientation were used. The procedures described in the ApopTag Peroxidase In Situ Apoptosis Detection Kit (Intergen Co., Purchase, N.Y.) were followed and diaminobenzidine (Sigma, St. Louis, Mo.) was used as a color substrate. Counting was performed by two masked investigators with light microscopy, and averaged.

[4] = tested on: HSC70; assay: Quantitative immunohistochemical analysis of HSC70 in the RGCL after 1 week of IOP elevation (Experiment 3); type: in vivo, rat; conditions: among all the groups, 1 week after laser
Description: TdT-mediated biotin-dUTP nick end labeling (TUNEL) and immunohistochemical analysis for HSP72 and HSC70 were performed.
Animals were deeply anesthetized with intramuscular injections of 0.8 ml/kg of a cocktail of 5 ml ketamine (100 mg/ml), 2.5 ml xylazine (20 mg/ml), 1.0 ml acepromazine (10 mg/ml), and 1.5 ml normal saline. Then they were transcardially perfused with 4% paraformaldehyde in 0.1 M phosphate buffer. The enucleated eyeballs were immersed in fixative for 1 hour, bisected and post-fixed overnight. The eyes were embedded in paraffin and sectioned at a four-μm thickness along the vertical meridian through the optic nerve head. […] Antigen-antibody complexes were detected by an avidin-biotin-peroxidase technique (Vectastain ABC Kit; Vector Laboratories). […]
Immunohistochemical staining was analyzed quantitatively with a computer-assisted image processing unit (Image-Pro Plus software, Media Cybernetics, Silver Spring, Md.) and the “count-measure” function. […] For each digital image, all individual cells in the RGCL were marked by a masked examiner and the optical density of each cell was measured. The relative intensities of cells in the RGCL were measured and averaged (±SEM) to yield a single value representing one retina.

Geranylgeranylacetone [GGA]
immunoreactivity of HSP72 in RGCs (immunoblot) ([1]; 1 day): mild increase in immunoreactivity
immunoreactivity of HSP72 in RGCs (immunoblot) ([1]; 3 days): increased HSP72 expression; also recorded: strong increase in immunoreactivity
immunoreactivity of HSP72 in RGCs (immunoblot) ([1]; 7 days): increased HSP72 expression; also recorded: strong increase in immunoreactivity
effect on optic nerve injury / axonal damage (in words) ([2]; 5 weeks of IOP elevation): inhibited; also recorded: significantly ameliorated
optic nerve injury grade ([2]; 5 weeks of sustained IOP elevation, scale 1 (normal) to 5 (total degeneration)): 1.33±0.05
optic nerve injury (in words) ([2]; contralateral control eyes): no statistically significant optic nerve injury
optic nerve injury grade ([2]; contralateral control eyes, scale 1 to 5): 1.11±0.02
inhibition of cell death ([3]; 1 week of IOP elevation): 57%
number of TUNEL positive cells in the RGCL ([3]; 1 week of IOP elevation): 0.53±0.11 per retinal section
effect on number of TUNEL positive cells (in words) ([3]; elevated IOP retinas, 1 week, quercetin = co-administered with GGA): significantly reduced
expression of HSC70 in RGCL (immunoreactive intensity) [4]: no statistically significant difference; also recorded: No change in HSC70 immunoreactivity
